Measured values from patent US8722901B2, “Carboxy oxazole or thiazole compounds as DGAT-1 inhibitors useful for the treatment of obesity” (Piramal Enterprises Limited, priority 2009, dated 2014).

Biological target: T1, hDGAT-1 (Homo sapiens, UniProt O75907)
T1 construct: host or cells: Sf9 insect cells (baculovirus); microsomal fraction
T1 sequence (O75907 1-488): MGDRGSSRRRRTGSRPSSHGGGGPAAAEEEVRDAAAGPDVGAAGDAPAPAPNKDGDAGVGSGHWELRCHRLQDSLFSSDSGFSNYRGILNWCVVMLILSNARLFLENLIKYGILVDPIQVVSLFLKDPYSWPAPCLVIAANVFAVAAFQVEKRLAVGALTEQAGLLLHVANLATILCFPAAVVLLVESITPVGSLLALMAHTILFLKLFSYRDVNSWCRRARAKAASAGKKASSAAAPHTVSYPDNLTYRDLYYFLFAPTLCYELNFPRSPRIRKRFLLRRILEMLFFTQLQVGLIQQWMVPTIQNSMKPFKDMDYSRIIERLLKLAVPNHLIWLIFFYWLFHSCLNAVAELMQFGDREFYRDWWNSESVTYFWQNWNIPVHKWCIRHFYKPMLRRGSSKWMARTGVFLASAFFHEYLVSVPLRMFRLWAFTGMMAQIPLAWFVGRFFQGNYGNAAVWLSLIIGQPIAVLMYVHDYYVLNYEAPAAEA
Assay: In-vitro DGAT-1 assay (14C oleoyl CoA, microsomes from Sf9 cells)
Assay type: biochemical
Details: 1 μM compound; hDGAT-1 containing microsomes from Sf9 cells
Description: In-Vitro Protocol for DGAT-1 Assay
Sf9 Culture and Treatment
Sf9 cells were grown in T25 flasks containing Graces's Insect media (Invitrogen, US) with 10% FBS (Hyclone, US) with antibiotic (100 units/mL penicillin, 100 μg/mL streptomycin sulphate, 0.25 μg/mL amphotericin B as Fungizone) grown in a 27° C. incubator.
hDGAT-10RF expression clone (RZPDo839C09146 in pDEST vector) was obtained from RZPD, Germany. hDGAT-1 bacmid DNA was obtained by transformation of the hDGAT expression clone into DH10Bac E. coli competent cells. Approximately 1 μg of hDGAT-1 bacmid DNA was infected into Sf9 cells with Cellfectin (Invitrogen, US) reagent. Following infection, Sf9 cells were incubated at 27° C. for 30 minutes. Five hours after infection, the media was replaced with growth media containing antibiotic (100 units/mL penicillin, 100 μg/mL streptomycin sulphate, 0.25 μg/mL amphotericin B as Fungizone) and incubated at 27° C. for 72 hours. The supernatant containing the virus was centrifuged at 1500 g for 5 minutes, passed through 0.22 μm filter, and subsequently stored at 4° C. The virus was further amplified three more times by re-infection of Sf9 cells and the viral titer was determined by plaque assay.
Preparation of DGAT-1 Microsomes from Sf9 Cells
Sf9 cells were seeded in spinner flasks on day 0 at a cell density of 1×10^6 and infected on day 1 with hDGAT-1 baculovirus at a multiplicity of infection (MOI) of 5 and a cell density of 2×10^6. On day 3 (or 66-72 hours), cells were harvested and centrifuged at 2500 g for 10 minutes. Pellet was resuspended in lysis buffer (100 mM sucrose, 50 mM KCl, 40 mM KH2PO4, 30 mM EDTA, pH 7.2) and passed through 21-gauge needle approximately 10 times. […] The supernatant was subjected to centrifugation at 35,000 rpm in a Beckman Ti-45 rotor at 4° C. for 1 hour. The resultant pellet containing the microsomes were resuspended overnight in 1 mL of lysis buffer and total protein concentration was estimated using Bradford Reagent (Sigma, US). Microsomes were aliquoted and stored at −80° C.
Measurement of DGAT-1 Activity
Frozen aliquots of hDGAT-1 containing microsomes were thawed (5-10 mg/mL total protein) on ice and diluted to a working stock of 1 mg/mL with DGAT Assay Buffer (DAB).
The assay was performed in duplicates in a reaction volume of 100 μL. […] Procedure:
The reaction was started by the addition of […] of 1 mg/mL of microsomes (iv) to the mixture and incubated at 37° C. for 10 minutes. […] The mixture was vortexed and the triglycerides formed were extracted into the organic heptane phase.

Row | Compound | inhibition at 1 µM | % inhibition of hDGAT-1 at 1 μM
1 | CCCCCc1ccc(C(=O)Nc2ccc(-c3cnc(C(=O)N(C)C(C(=O)O)C(C)C)s3)cc2)cc1 (centres unmarked) [Example 40, 3-Methyl-2-(N-methyl-5-(4-(4-pentylbenzamido)phenyl)thiazole-2-carboxamido)butanoic acid] | 50 to 100% | 
2 | Cc1ccc(NC(=O)Nc2ccc(-c3csc(C(=O)NC(C(=O)O)C(C)C)n3)cc2)cc1C (centres unmarked) [Example 32, 2-(4-(4-(3-(3,4-Dimethylphenyl)ureido)phenyl)thiazole-2-carboxamido)-3-methylbutanoic acid] | 0 to 50% | 
3 | CC(C)[C@H](NC(=O)c1ncc(-c2ccc(NC(=O)Nc3ccc(C(F)(F)F)cc3Cl)cc2)o1)C(=O)O [Example 62, (S)-2-(5-(4-(3-(2-chloro-4-(trifluoromethyl)phenyl)ureido)phenyl)oxazole-2-carboxamido)-3-methylbutanoic acid] | 50 to 100% | 
4 | CC(C)[C@H](NC(=O)c1ncc(-c2ccc(NC(=O)Nc3ccc(Cl)cc3)cc2)s1)C(=O)O [Example 68, (S)-2-(5-(4-(3-(4-chlorophenyl)ureido)phenyl)thiazole-2-carboxamido)-3-methylbutanoic acid] | 50 to 100% | 
5 | CC(C)C(NC(=O)c1ncc(-c2ccc(N(Cc3ccccc3)Cc3ccccc3)cc2)s1)C(=O)O (centres unmarked) [Example 93, 2-(5-(4-(dibenzylamino)phenyl)thiazole-2-carboxamido)-3-methylbutanoic acid] | 0 to 50% | 
6 | CC(C)[C@H](NC(=O)c1ncc(-c2ccc(NC(=O)Nc3ccc(C(F)(F)F)cc3Cl)cc2)s1)C(=O)O [Example 72, (S)-2-(5-(4-(3-(2-chloro-4-(trifluoromethyl)phenyl)ureido)phenyl)thiazole-2-carboxamido)-3-methylbutanoic acid] | 50 to 100% | 
7 | CC(C)[C@H](NC(=O)c1ncc(-c2ccc(NC(=O)Nc3ccc4c(c3)CCC4)cc2)o1)C(=O)O [Example 56, (S)-2-(5-(4-(3-(2,3-dihydro-1H-inden-5-yl)ureido)phenyl)oxazole-2-carboxamido)-3-methylbutanoic acid] | 50 to 100% | 
8 | CC(C)C(C(=O)O)N(C)C(=O)c1ncc(-c2ccc(NC(=O)c3ccc(-c4ccccc4)cc3)cc2)s1 (centres unmarked) [Example 42, 2-(5-(4-Biphenyl-4-ylcarboxamidophenyl)-N-methylthiazole-2-carboxamido)-3-methylbutanoic acid] |  | ++ (>50% Inhibition ≦100)
9 | CC(C)C(NC(=O)c1nc(-c2ccc(NC(=O)Nc3ccc(C(F)(F)F)cc3)cc2)cs1)C(=O)O (centres unmarked) [Example 30, 3-methyl-2-(4-(4-(3-(4-(trifluoromethyl)phenyl)ureido)phenyl)thiazole-2-carboxamido)butanoic acid] | 0 to 50% | 
10 | CC(C)C(C(=O)O)N(C)C(=O)c1ncc(-c2ccc(NC(=O)c3ccc(C(C)(C)C)cc3)cc2)s1 (centres unmarked) [Example 44, 2-(5-(4-(4-tert-Butylbenzamido)phenyl)-N-methylthiazole-2-carboxamido)-3-methylbutanoic acid] | 50 to 100% | 
11 | CC(C)C(NC(=O)c1nc(-c2ccc(NC(=O)Nc3ccc(Cl)cc3Oc3ccccc3)cc2)cs1)C(=O)O (centres unmarked) [Example 34, 2-(4-(4-(3-(4-chloro-2-phenoxyphenyl)ureido)phenyl)thiazole-2-carboxamido)-3-methylbutanoic acid] | 0 to 50% | 
12 | CCCCCc1ccc(C(=O)Nc2ccc(-c3csc(C(=O)NC(C(=O)O)C(C)C)n3)cc2)cc1 (centres unmarked) [Example 38, 3-Methyl-2-(4-(4-(4-pentylbenzamido)phenyl)thiazole-2-carboxamido) butanoic acid] | 0 to 50% | 
13 | CC(C)C(NC(=O)c1nc(-c2ccc(NC(=O)c3ccc(-c4ccccc4)cc3)cc2)cs1)C(=O)O (centres unmarked) [Example 36, 2-(4-(4-Biphenyl-4-ylcarboxamidophenyl)thiazole-2-carboxamido)-3-methylbutanoic acid] |  | + (>0% Inhibition ≦50)
14 | CC(C)[C@H](NC(=O)c1ncc(-c2ccc(NC(=O)Nc3ccc(Cl)cc3F)cc2)o1)C(=O)O [Example 64, (S)-2-(5-(4-(3-(4-chloro-2-fluorophenyl)ureido)phenyl)oxazole-2-carboxamido)-3-methylbutanoic acid] | 50 to 100% | 
15 | CC(C)[C@H](NC(=O)c1ncc(-c2ccc(NC(=O)Nc3ccc(Cl)cc3F)cc2)s1)C(=O)O [Example 74, (S)-2-(5-(4-(3-(4-chloro-2-fluorophenyl)ureido)phenyl)thiazole-2-carboxamido)-3-methylbutanoic acid] | 50 to 100% | 
16 | Cc1ccc(NC(=O)Nc2ccc(-c3cnc(C(=O)NC(C(=O)O)C(C)C)o3)cc2)cc1C (centres unmarked) [Example 6, 2-(5-(4-(3-(3,4-dimethylphenyl)ureido)phenyl)oxazole-2-carboxamido)-3-methylbutanoic acid] | 50 to 100% | 
17 | CC(C)C(NC(=O)c1nc(-c2ccc(NC(=O)Nc3ccccc3Cl)cc2)cs1)C(=O)O (centres unmarked) [Example 24, 2-(4-(4-(3-(2-Chlorophenyl)ureido)phenyl)thiazole-2-carboxamido)-3-methylbutanoic acid] | 0 to 50% | 
18 | CC(C)[C@H](NC(=O)c1ncc(-c2ccc(NC(=O)Nc3ccc(Cl)cc3)cc2)o1)C(=O)O [Example 58, (S)-2-(5-(4-(3-(4-chlorophenyl)ureido)phenyl)oxazole-2-carboxamido)-3-methylbutanoic acid] | 50 to 100% | 
19 | CC(C)C(NC(=O)c1nc(-c2ccc(NS(=O)(=O)c3ccc(Cl)cc3Cl)cc2)cs1)C(=O)O (centres unmarked) [Example 46, 2-(4-(4-(2,4-Dichlorophenylsulfonamido)phenyl)thiazole-2-carboxamido)-3-methylbutanoic acid] | 0 to 50% | 
20 | CC(C)C(NC(=O)c1ncc(-c2ccc(NC(=O)Nc3ccc(Cl)cc3Oc3ccccc3)cc2)o1)C(=O)O (centres unmarked) [Example 8, 2-(5-(4-(3-(4-chloro-2-phenoxyphenyl)ureido)phenyl)oxazole-2-carboxamido)-3-methylbutanoic acid] | 50 to 100% | 
21 | CC(C)C(NC(=O)c1ncc(-c2ccc(NC(=O)C3Cc4ccccc4C3)cc2)s1)C(=O)O (centres unmarked) [Example 52, 2-(5-(4-(2,3-dihydro-1H-indene-2-carboxamido)phenyl)thiazole-2-carboxamido)-3-methylbutanoic acid] | 50 to 100% | 
22 | CC(C)C(NC(=O)c1ncc(-c2ccc(NCc3ccc(F)cc3)cc2)s1)C(=O)O (centres unmarked) [Example 91, 2-(5-(4-((4-Fluorobenzyl)amino)phenyl)thiazole-2-carboxamido)-3-methylbutanoic acid] | 0 to 50% | 
23 | CC(C)C(NC(=O)c1ncc(-c2ccc(NC(=O)c3ccc(-c4ccccc4)cc3)cc2)s1)C(=O)O (centres unmarked) [Example 48, 2-(5-(4-biphenyl-4-ylcarboxamidophenyl)thiazole-2-carboxamido)-3-methylbutanoic acid] |  | ++ (>50% Inhibition ≦100)
24 | CC(C)C(NC(=O)c1ncc(-c2ccc(NC(=O)Nc3cccc(C(F)(F)F)c3)cc2)o1)C(=O)O (centres unmarked) [Example 2, 3-Methyl-2-(5-(4-(3-(3-(trifluoromethyl)phenyl)ureido)phenyl)oxazole-2-carboxamido)butanoic acid] | 50 to 100% | 
25 | CC(C)[C@H](NC(=O)c1ncc(-c2ccc(NC(=O)Nc3cccc(Cl)c3)cc2)s1)C(=O)O [Example 70, (S)-2-(5-(4-(3-(3-chlorophenyl)ureido)phenyl)thiazole-2-carboxamido)-3-methylbutanoic acid] | 50 to 100% | 
26 | CC(C)C(NC(=O)c1nc(-c2ccc(NC(=O)c3ccc(C(C)(C)C)cc3)cc2)cs1)C(=O)O (centres unmarked) [Example 28, 2-(4-(4-(4-tert-butylbenzamido)phenyl)thiazole-2-carboxamido)-3-methylbutanoic acid] | 0 to 50% | 
